For 16 molecules, IC50, Activity and viability results are on record in ChEMBL document CHEMBL3763098, “Induction of apoptosis by cyclobutanones and derived polycyclic -lactones: a preliminary analysis of antiproliferative activity” (Medchemcomm, 2015).

Series [1] is described as follows: Cytotoxicity against human PC3 cells assessed as inhibition of cell growth after 48 hrs by sulforhodamine B assay. Type of series: functional, cell-based. Conditions: PC-3, 48 h.
The nature of series [2]: Cytotoxicity against human HCT116 cells assessed as inhibition of cell growth after 48 hrs by sulforhodamine B assay. Type of series: functional, cell-based. Conditions: HCT-116, 48 h. In general terms: In SRB staining, fixed cells bind dye roughly in proportion to their protein.
Series [3] is described as follows: Cytotoxicity against human THP1 cells assessed as inhibition of cell growth after 48 hrs by sulforhodamine B assay. Type of series: functional, cell-based. To be noted: THP-1, 48 h.
In a further series the test system is A549. The series is described as follows: Cytotoxicity against human A549 cells assessed as inhibition of cell growth after 48 hrs by sulforhodamine B assay. The format is functional, cell-based. To be noted: A549, 48 h.
In series [4] the test system is PC-3. The series is described as follows: Induction of apoptosis in human PC3 cells assessed as cell shrinkage at IC50 incubated for 12 hrs by DAPI staining based confocal microscopy. Type of series: functional.
In series [5] the test system is PC-3. The series can be described thus: Induction of apoptosis in human PC3 cells assessed as decrease in cell size at IC50 incubated for 12 hrs by scanning electron microscopy. The format is functional, cell-based.
Series [6] relates to PC-3. The series is described as follows: Induction of apoptosis in human PC3 cells assessed as increase in intracellular ROS level after 24 hrs using DCFH-DA by spectrofluorimetric analysis. Type of series: functional, cell-based.
Series [7] in a line: Cell cycle arrest in human PC3 cells assessed as accumulation at subG1 phase at 5 uM after 12 hrs by propidium iodide staining based flow cytometry (reference value: 29.6%). The format is functional. To be noted: PC-3. A general note: A flow cytometer gives signals particle by particle.
Series [8] is described as follows: Cell cycle arrest in human PC3 cells assessed as accumulation at subG1 phase after 12 hrs by propidium iodide staining based flow cytometry. Type of series: functional. Conditions: PC-3.
Series [9] has as its system PC-3. The series is described as follows: Induction of apoptosis in human PC3 cells assessed as plasma membrane blebbing at IC50 incubated for 12 hrs by scanning electron microscopy. The format is functional, cell-based.
The test system of series [10] is PC-3. The series is described as follows: Induction of apoptosis in human PC3 cells assessed as smoothening of cell surface at IC50 incubated for 6 hrs by scanning electron microscopy. Type of series: functional, cell-based.
The subject of series [11] is PC-3. The series is described as follows: Induction of apoptosis in human PC3 cells assessed as smoothening of cell surface at IC50 incubated for 12 hrs by scanning electron microscopy. The format is functional, cell-based.
A short description of series [12]: Cell cycle arrest in human PC3 cells assessed as accumulation at subG1 phase at 10 uM after 12 hrs by propidium iodide staining based flow cytometry (reference value: 29.6%). Conditions: PC-3. The format is functional.
The test system of series [13] is CHO. The series is described as follows: Induction of apoptosis in CHO cells assessed as early apoptotic cells at 10 uM after 24 hrs by Annexin V-FITC/propidium iodide staining based flow cytometry (reference value: 3%). The format is cell-based, Cricetulus griseus. Conditions: chinese hamster.
In series [14] the test system is PC-3. The series can be described thus: Induction of apoptosis in human PC3 cells assessed as mitochondrial membrane potential depolarization after 12 hrs using rhodamine 123 by spectrofluorimetric analysis. Type of series: functional, cell-based.
Series [15] deals with CHO. The series is described as follows: Induction of apoptosis in CHO cells assessed as late apoptotic cells at 10 uM after 24 hrs by Annexin V-FITC/propidium iodide staining based flow cytometry (reference value: 1%). Conditions: chinese hamster. The format is cell-based, Cricetulus griseus.
The nature of series [16]: Induction of apoptosis in CHO cells assessed as viable cells at 10 uM after 24 hrs by Annexin V-FITC/propidium iodide staining based flow cytometry (reference value: 91.8%). To be noted: chinese hamster, read-out: Activity. The format is cell-based, Cricetulus griseus.
Series [17] relates to PC-3. The series is described as follows: Induction of apoptosis in human PC3 cells assessed as cell rounding at IC50 incubated for 12 hrs by DAPI staining based confocal microscopy. Type of series: functional.
Series [18] is described as follows: Cell cycle arrest in human PC3 cells assessed as accumulation at subG1 phase at 15 uM after 12 hrs by propidium iodide staining based flow cytometry (reference value: 29.6%). Conditions: PC-3. Type of series: functional.
For series [19], the system named is CHO. The series is described as follows: Induction of apoptosis in CHO cells assessed as necrotic cells at 10 uM after 24 hrs by Annexin V-FITC/propidium iodide staining based flow cytometry (reference value: 4.3%). Type of series: cell-based, Cricetulus griseus. To be noted: chinese hamster.
The subject of series [20] is PC-3. The series can be described thus: Induction of apoptosis in human PC3 cells assessed as plasma membrane blebbing at IC50 incubated for 12 hrs by DAPI staining based confocal microscopy. Type of series: functional, cell-based.
Series [21] deals with PC-3. The series can be described thus: Induction of apoptosis in human PC3 cells assessed as plasma membrane blebbing at IC50 incubated for 6 hrs by scanning electron microscopy. The format is functional, cell-based.
The nature of series [22]: Cell cycle arrest in human PC3 cells assessed as accumulation at subG1 phase at 2 uM after 12 hrs by propidium iodide staining based flow cytometry (reference value: 29.6%). Type of series: functional. To be noted: PC-3.

Structures are written as SMILES. Counter-ions that a name gives are not always drawn. The source made the active and inactive calls. The calls are words filed in the database; no cut-off is given here.

For orientation: IC50 means the midpoint of a concentration-inhibition curve. `CC1(C)CCC[C@@]2(C)C1=C[C@H]1C(=O)[C@H](c3ccccc3Cl)[C@H]12`: the IC50 in series [1] is more than 50 µM; in series [2], more than 50 µM; in [3] it was more than 50 µM; in the series with A549, 25 µM.

`CO[C@@]12[C@H](COC(N)=O)C3=C(C(=O)C(C)=C(N)C3=O)N1C[C@@H]1N[C@@H]12` [MITOMYCIN]: the IC50 worked out at 0.2 µM in series [1] and 0.5 µM in [3].

Take `CC1(C)CCC[C@@]2(C)C1=C[C@H]1C(=O)[C@H](c3ccccc3Br)[C@H]12`: the IC50 was more than 50 µM in [1], 19 µM in [2], 10 µM in [3] and 28 µM with A549.

For `CC1(C)CCC[C@@]2(C)C1=C[C@H]1C(=O)O[C@H](c3ccccc3Br)[C@H]12`, the IC50 (in series [1]; in [2]; in series [3]; with A549) was more than 50 µM in each case.

On to `COc1ccccc1[C@H]1C(=O)[C@@H]2C=C3C(C)(C)CCC[C@]3(C)[C@H]12`, for which the result with PC-3 [4], in the series on PC-3 [5], with PC-3 [9], in the series on PC-3 [10], in the series with PC-3 [11] and in the series with PC-3 [17] was Active. Further, the outcome in the series on PC-3 [20] and with PC-3 [21] was Active. The Activity result in the series on PC-3 [6] was “Dose-dependent effect”; in series [7], 45.2%; in series [8], “Dose-dependent effect”; in series [12], 56.6%; with CHO [13], 37.6%; in the series on PC-3 [14], “Dose-dependent effect”. Moreover, the Activity in the series on CHO [15] was 6.9%; in series [18], 74.1%; with CHO [19] it was 1.1%. Also, in series [16], the viability at 24 h, 10 µM was 54.5%. In addition, the IC50 in series [1] is 8 µM; in series [2], 12 µM; in series [3] it was 10 µM; with A549, 10 µM.

On to `CC1(C)CCC[C@@]2(C)C1=C[C@H]1C(=O)[C@H](c3ccccc3F)[C@H]12`, for which the IC50 in series [1] was more than 50 µM; in series [2], 17 µM; in series [3] it was 18 µM; in the series on A549, 36 µM.

For `CC1(C)CCC[C@@]2(C)C1=C[C@H]1C(=O)O[C@H](c3ccc(Cl)c(Cl)c3)[C@H]12`, the IC50 in series [1] was 12 µM; in [2] it was 20 µM; in series [3] it was more than 50 µM; in the series with A549, more than 50 µM.

As to `CC[C@@]1(O)C(=O)OCc2c1cc1n(c2=O)Cc2cc3ccccc3nc2-1` [CAMPTOTHECIN], the Activity in the series with CHO [13] worked out at 21.6%; with CHO [15], 2.4%; with CHO [19], 1.2%; in series [22], 60.9%. Further, the viability at 24 h, 10 µM in series [16] worked out at 74.8%.

With `COc1ccccc1[C@H]1OC(=O)[C@@H]2C=C3C(C)(C)CCC[C@]3(C)[C@H]12`, the result in the series on PC-3 [4], in the series on PC-3 [5], with PC-3 [9], with PC-3 [10], in the series on PC-3 [11] and with PC-3 [17] was Active. For the same molecule, the outcome with PC-3 [20] and with PC-3 [21] was Active. Also, the Activity entry was “Dose-dependent effect” with PC-3 [6]; 59.8% in series [7]; 68.1% in series [12]; 36.2% with CHO [13]; “Dose-dependent effect” in the series on PC-3 [14]; 6.1% in the series on CHO [15]. For the same molecule, the Activity in series [18] was 77.5%; with CHO [19], 0.8%. For the same molecule, the viability at 24 h, 10 µM in series [16] was 56.8%. In addition, the IC50 was 10 µM in series [1], 15 µM in [2], more than 50 µM in series [3] and 18 µM with A549.

Take `Cc1ccccc1[C@H]1C(=O)[C@@H]2C=C3C(C)(C)CCC[C@]3(C)[C@H]12`: the IC50 in series [1] was more than 50 µM; in series [2] it was more than 50 µM; in series [3] it was more than 50 µM; with A549 it was 28 µM.

For the molecule `CC1(C)CCC[C@@]2(C)C1=C[C@H]1C(=O)O[C@H](c3ccccc3Cl)[C@H]12`, the half-maximal inhibitory concentration (IC50) in series [1] is more than 50 µM; in series [2], more than 50 µM; in series [3] it was more than 50 µM; with A549, 40 µM.

Take `CC1(C)CCC[C@@]2(C)C1=C[C@H]1C(=O)O[C@H](c3ccccc3F)[C@H]12`: the half-inhibitory concentration (IC50) (in series [1]; in series [2]; in series [3]; in the series on A549) was more than 50 µM each time.

With `O=c1[nH]cc(F)c(=O)[nH]1` [FLUOROURACIL], in the series with A549, the 50% inhibitory concentration (IC50) is 0.5 µM.

For `CC1(C)CCC[C@@]2(C)C1=C[C@H]1C(=O)[C@H](c3ccc(Cl)c(Cl)c3)[C@H]12`, the IC50 in series [1] was more than 50 µM; in series [2], 38 µM; in [3], more than 50 µM; in the series with A549 it was more than 50 µM.

On to `COc1cccc2c1C(=O)c1c(O)c3c(c(O)c1C2=O)C[C@@](O)(C(=O)CO)C[C@@H]3O[C@H]1C[C@H](N)[C@H](O)[C@H](C)O1` [DOXORUBICIN HYDROCHLORIDE], for which the IC50 in [2] was 0.01 µM.

Take `Cc1ccccc1[C@H]1OC(=O)[C@@H]2C=C3C(C)(C)CCC[C@]3(C)[C@H]12`: the IC50 in series [1] is 21 µM; in [2], more than 50 µM; in series [3], more than 50 µM; in the series on A549, 23 µM.
